Assay results published in patent US9388149B2, “Disubstituted 3,4-diamino-3-cyclobutene-1,2-dione compounds for use in the treatment of chemokine-mediated diseases” (GALDERMA RESEARCH & DEVELOPMENT, priority 2011, dated 2016).

What was measured:
CCR6 = CCR6 (Homo sapiens (Human), UniProt P51684); assay: Calcium flux on Chem-1 cells expressing the chemokine receptor (FLIPR TETRA), antagonist mode; assay type: cell-based; conditions: antagonist activity, reference agonist at AC80
Procedure: (§3) Measurement of calcium flux on cells: The experiments were carried out on the FLIPR TETRA® platform from Molecular Devices.
(§4) Each cell line expressing a chemokine receptor was established on the basis of the Chem-1 cell stably expressing the recombinant form of the chemokine receptor and also an associated G protein, with the aim of coupling the receptor to the calcium signalling pathway.
(§5) 21 receptors belonging to the chemokine receptor family (CCRs and CXCRs) were analyzed.

[1] = Metabolic stabilities in hepatic microsomes; conditions: hepatic microsomes, pH 7.4, Half-life time (min), hepatic microsomes 0.5 mg/ml protein, compound 1 μM, sampling up to 60 minutes
Procedure: Hepatic microsomes (Becton Dickinson) were incubated at a protein concentration of 0.5 mg/ml in the reaction medium.
The reaction medium of the microsomes was composed of phosphate buffer, pH: 7.4 at 100 mM, of MgCl2 at 100 mM (50/50), of an ATP-generating system composed of a mixture of nicotinamide adenine diphosphate (NADP), of glucose-6-phosphate (G6P) at 1 mg/ml and of glucose-6-phosphate dehydrogenase (G6PDH) at 4 U/ml. The compounds were tested at 1 μM (0.1% DMSO).
The samples of incubation medium after addition of the microsomes were taken at times 5, 10, 15, 30 and 60 minutes. At each time, the metabolic reaction was stopped by adding methanol (1 volume incubation medium/3 volumes of methanol). The disappearance of the parent product was measured by LC/MS/MS analysis. The time for which 50% of parent product disappeared (T1/2) was calculated from the kinetics of disappearance of the parent product as a function of time.

CXCR3 = CXCR3 (Homo sapiens (Human), UniProt P49682); assay: Calcium flux on Chem-1 cells expressing the chemokine receptor (FLIPR TETRA), antagonist mode; conditions: IC50 CXCR3, antagonist activity, reference agonist at AC80
Sequence of CXCR3 (P49682 whole entry): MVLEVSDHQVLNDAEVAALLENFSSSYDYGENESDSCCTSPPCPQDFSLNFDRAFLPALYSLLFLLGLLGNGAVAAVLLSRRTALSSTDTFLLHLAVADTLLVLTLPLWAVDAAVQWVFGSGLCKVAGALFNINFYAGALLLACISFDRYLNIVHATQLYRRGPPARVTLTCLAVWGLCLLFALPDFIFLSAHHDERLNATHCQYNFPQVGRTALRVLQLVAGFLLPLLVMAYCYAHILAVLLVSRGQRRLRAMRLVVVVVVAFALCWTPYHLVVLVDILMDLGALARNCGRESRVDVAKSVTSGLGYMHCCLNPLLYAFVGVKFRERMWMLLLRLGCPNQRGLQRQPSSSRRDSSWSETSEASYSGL
Procedure: as §3, §4, §5

CXCR2 receptor = CXCR2 receptor (Homo sapiens (Human), UniProt P25025); assay: β-arrestin recruitment test, PathHunter HEK293-CXCR2 cells stimulated with CXCL8; assay type: cell-based; conditions: inhibition of CXCL8 (10 nM) induced β-arrestin 2 recruitment; *9999 signifies not active
Sequence of CXCR2 receptor (P25025 whole entry): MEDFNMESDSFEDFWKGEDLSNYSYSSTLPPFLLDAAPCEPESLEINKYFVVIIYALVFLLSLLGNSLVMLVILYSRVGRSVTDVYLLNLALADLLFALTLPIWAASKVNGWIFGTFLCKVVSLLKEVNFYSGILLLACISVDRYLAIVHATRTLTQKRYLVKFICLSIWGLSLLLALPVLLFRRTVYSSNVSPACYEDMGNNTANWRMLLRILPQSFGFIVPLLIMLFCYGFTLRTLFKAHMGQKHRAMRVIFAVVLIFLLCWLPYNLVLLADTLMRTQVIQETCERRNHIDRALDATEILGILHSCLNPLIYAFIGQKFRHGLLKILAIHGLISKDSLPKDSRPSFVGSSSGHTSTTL
Procedure: (§1) The in vitro affinity of the compounds of the present invention for the CXCR1 and CXCR2 receptors was determined on a functional test of the β-arrestin recruitment after receptor activation type.
(§2) β-Arrestin recruitment test: “PathHunter HEK293-CXCR2” or “U2OS hCXCR1 β-arrestin” cells (DiscoveRx Corporation) were seeded overnight at 10 000 cells/well (384-well format) in 20 μl of Opti MEM I medium. A preincubation with the antagonist or the vehicle for 30 min at 37° C. and 5% CO2 was followed by 60 minutes of stimulation with CXCL8 at 37° C. and 5% CO2. The cells were then placed at ambient temperature for 30 minutes. The PathHunter detection reagent (DiscoveRx Corporation) was added. […] The data were analyzed by means of a non-linear curve procedure using the XLFit4 exploitation software (IDBS) and the IC50 values were determined.

[2] = Metabolic stabilities in hepatocytes; assay type: in vitro ADME; conditions: compound 1 μM, sampling up to 24 hours; for half-life at 1 μM: human, hepatocytes, read-out: Half-life time
Procedure: The human hepatocytes were supplied by Biopredic in 24-well plates.
The samples of incubation medium after addition of the test compound were taken at times t=0, 1, 2, 4, 6 and 24 hours.

FPR1 = FPR1 (Homo sapiens (Human), UniProt P21462); assay: Calcium flux on Chem-1 cells expressing the receptor (FLIPR TETRA), antagonist mode; assay type: cell-based; conditions: antagonist activity, reference agonist at AC80
Sequence of FPR1 (P21462 whole entry): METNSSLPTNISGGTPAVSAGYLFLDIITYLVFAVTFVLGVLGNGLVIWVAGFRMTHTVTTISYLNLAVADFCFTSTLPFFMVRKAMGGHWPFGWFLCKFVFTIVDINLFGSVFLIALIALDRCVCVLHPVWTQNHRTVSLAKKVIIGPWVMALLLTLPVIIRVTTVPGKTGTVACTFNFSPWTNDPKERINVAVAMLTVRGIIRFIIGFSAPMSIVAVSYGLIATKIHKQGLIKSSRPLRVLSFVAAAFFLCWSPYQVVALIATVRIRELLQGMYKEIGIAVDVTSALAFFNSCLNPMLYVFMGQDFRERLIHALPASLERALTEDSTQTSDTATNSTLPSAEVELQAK
Procedure: as §3, §4

CCR8 = CCR8 (Homo sapiens (Human), UniProt P51685); assay: Calcium flux on Chem-1 cells expressing the chemokine receptor (FLIPR TETRA), antagonist mode; assay type: cell-based; conditions: antagonist activity, reference agonist at AC80
Sequence of CCR8 (P51685 whole entry): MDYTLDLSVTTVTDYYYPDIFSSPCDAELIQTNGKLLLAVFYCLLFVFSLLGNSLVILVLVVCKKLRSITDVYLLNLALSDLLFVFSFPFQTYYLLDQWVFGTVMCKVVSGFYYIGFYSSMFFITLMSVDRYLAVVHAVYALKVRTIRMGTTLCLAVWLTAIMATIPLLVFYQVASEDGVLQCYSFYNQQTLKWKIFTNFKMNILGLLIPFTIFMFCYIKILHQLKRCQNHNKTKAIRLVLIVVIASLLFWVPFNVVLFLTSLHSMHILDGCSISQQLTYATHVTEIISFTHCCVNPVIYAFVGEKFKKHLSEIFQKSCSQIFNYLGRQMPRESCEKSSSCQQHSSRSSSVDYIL
Procedure: as §3, §4, §5

CCR4 = CCR4 (Homo sapiens (Human), UniProt P51679); assay: as above
Sequence of CCR4 (P51679 whole entry): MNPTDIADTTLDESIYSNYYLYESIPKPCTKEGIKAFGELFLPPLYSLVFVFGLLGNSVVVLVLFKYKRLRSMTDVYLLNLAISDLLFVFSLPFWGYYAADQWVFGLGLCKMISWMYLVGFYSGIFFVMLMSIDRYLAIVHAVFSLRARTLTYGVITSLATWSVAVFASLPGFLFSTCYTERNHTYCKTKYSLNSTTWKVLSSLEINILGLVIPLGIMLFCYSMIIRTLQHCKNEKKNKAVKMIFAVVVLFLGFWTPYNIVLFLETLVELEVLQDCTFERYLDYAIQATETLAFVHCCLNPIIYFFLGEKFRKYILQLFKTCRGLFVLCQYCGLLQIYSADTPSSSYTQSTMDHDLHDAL
Procedure: as §3, §4, §5

CCR7 = CCR7 (Homo sapiens (Human), UniProt P32248); assay: as above; assay type: cell-based; conditions: antagonist activity, reference agonist at AC80
Sequence of CCR7 (P32248 25-378): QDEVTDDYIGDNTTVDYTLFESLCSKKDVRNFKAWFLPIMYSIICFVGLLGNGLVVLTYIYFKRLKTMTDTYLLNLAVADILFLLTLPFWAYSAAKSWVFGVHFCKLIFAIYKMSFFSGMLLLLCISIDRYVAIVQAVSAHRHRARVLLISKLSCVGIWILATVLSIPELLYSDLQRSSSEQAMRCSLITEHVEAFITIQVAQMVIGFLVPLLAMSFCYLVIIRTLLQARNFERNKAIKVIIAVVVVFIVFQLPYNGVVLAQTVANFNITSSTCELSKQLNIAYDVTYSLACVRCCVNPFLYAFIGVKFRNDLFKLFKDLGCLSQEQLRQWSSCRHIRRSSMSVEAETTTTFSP
Procedure: as §3, §4, §5

CXCR1 receptor = CXCR1 receptor (Homo sapiens (Human), UniProt P25024); assay: β-arrestin recruitment test, U2OS hCXCR1 β-arrestin cells stimulated with CXCL8; assay type: cell-based; conditions: inhibition of CXCL8 (10 nM) induced β-arrestin 2 recruitment; *9999 signifies not active
Sequence of CXCR1 receptor (P25024 whole entry): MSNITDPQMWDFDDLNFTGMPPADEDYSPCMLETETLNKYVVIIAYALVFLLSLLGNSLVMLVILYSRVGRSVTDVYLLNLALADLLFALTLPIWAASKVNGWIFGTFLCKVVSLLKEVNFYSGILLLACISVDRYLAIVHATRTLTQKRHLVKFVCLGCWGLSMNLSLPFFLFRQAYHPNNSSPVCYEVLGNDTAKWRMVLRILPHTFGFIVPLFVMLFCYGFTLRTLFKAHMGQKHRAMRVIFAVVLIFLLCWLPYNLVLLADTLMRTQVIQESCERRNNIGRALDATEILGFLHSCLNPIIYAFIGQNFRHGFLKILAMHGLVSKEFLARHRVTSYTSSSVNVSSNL
Procedure: as §1, §2

[3] = test system: receptors of CXCR1 and CXCR2 type; conditions: pseudo-irreversible dissociation, literature value; cited from earlier work
[4] = test system: panel of 20 chemokine receptors; assay: Receptor profiling on a panel of 20 chemokine receptors (calcium flux); conditions: result in words
Procedure: as §3, §4

Sequence of CCR6 (P51684 whole entry): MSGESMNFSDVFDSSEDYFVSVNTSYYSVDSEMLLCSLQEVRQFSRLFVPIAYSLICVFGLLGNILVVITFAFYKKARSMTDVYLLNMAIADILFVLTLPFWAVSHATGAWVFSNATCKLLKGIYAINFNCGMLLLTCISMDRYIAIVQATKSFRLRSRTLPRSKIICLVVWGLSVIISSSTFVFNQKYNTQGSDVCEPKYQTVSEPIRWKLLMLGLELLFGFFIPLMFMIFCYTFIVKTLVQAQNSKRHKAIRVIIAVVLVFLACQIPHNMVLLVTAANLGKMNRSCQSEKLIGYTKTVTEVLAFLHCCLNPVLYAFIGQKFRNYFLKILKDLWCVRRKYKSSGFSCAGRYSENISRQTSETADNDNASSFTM

SMILES	IC50 (CCR6) [nM]	half-life at 1 μM [1] [min]	IC50 (CXCR3) [nM]	IC50 (CXCR2 receptor) [nM]	Half-life time ([2]; human hepatocytes) [min]	IC50 (FPR1) [nM]	IC50 (CCR8) [nM]	IC50 (CCR4) [nM]	IC50 (CCR7) [nM]	half-life at 1 μM [2] [min]	IC50 (CXCR1 receptor) [nM]	activity on the chemokine receptors of the panel (CCR4, CCR6, CCR7, CCR8, CXCR3, FPR1) [4]	dissociation time [3]
Cc1ccc(C(Nc2c(Nc3cccc(C(=O)N(C)C)c3O)c(=O)c2=O)C2(C)CCCO2)o1 (single isomer, unassigned) [1 (diastereoisomer 2), 2-hydroxy-N,N-dimethyl-3-(2-{[(5-methylfuran-2-yl)-(2-methyltetrahydrofuran-2-yl)methyl]amino}-3,4-dioxo-cyclobut-1-enylamino)benzamide]	2.2	27	55	94	539								
Cc1ccc(C(Nc2c(Nc3cccc(C(=O)N(C)C)c3O)c(=O)c2=O)C2CCCS2)o1 (single isomer, unassigned) [2 (diastereoisomer 2), 2-Hydroxy-N,N-dimethyl-3-(2-{[(5-methylfuran-2-yl)-(tetrahydrothiophen-2-yl)methyl]amino}-3,4-dioxo-cyclobut-1-enylamino)benzamide]		11		35		6500	620						
Cc1ccc(C(Nc2c(Nc3cccc(C(=O)N(C)C)c3O)c(=O)c2=O)C2(C)CCCO2)o1 (single isomer, unassigned) [Example 1 (Enantiomer 2 of diastereoisomer 2), 2-Hydroxy-N,N-dimethyl-3-(2-{[(5-methylfuran-2-yl)-(2-methyltetrahydrofuran-2-yl)methyl]amino}-3,4-dioxo-cyclobut-1-enylamino)benzamide]	2		1.3	53				410	8700	300			
CC[C@@H](Nc1c(Nc2cccc(C(=O)N(C)C)c2O)c(=O)c1=O)c1ccc(C)o1 [SCH-527123]												inactive or not very active at all	about 22 h

Continued, in another order:

IC50 (CCR6) [nM]	half-life at 1 μM [1] [min]	IC50 (CXCR3) [nM]	IC50 (CXCR2 receptor) [nM]	Half-life time ([2]; human hepatocytes) [min]	IC50 (FPR1) [nM]	IC50 (CCR8) [nM]	IC50 (CCR4) [nM]	IC50 (CCR7) [nM]	half-life at 1 μM [2] [min]	IC50 (CXCR1 receptor) [nM]	activity on the chemokine receptors of the panel (CCR4, CCR6, CCR7, CCR8, CXCR3, FPR1) [4]	SMILES	dissociation time [3]
11	8	510	20				8.1		214	42		COC(=O)CN(C)C(=O)c1cccc(Nc2c(N[C@@H](c3ccc(C)o3)C3CCCS3)c(=O)c2=O)c1O (single isomer, unassigned) [Example 19]	
	7	150	17				9.4		49	30		Cc1ccc(C(Nc2c(Nc3ccc(Cl)c(S(=O)(=O)N4CCN(C)CC4)c3O)c(=O)c2=O)C2CCCS2)o1 (single isomer, unassigned; (-)) [Example 22, (−)-3-[4-chloro-2-hydroxy-3-(4-methylpiperazine-1-sulfonyl)phenylamino]-4-{[(5-methylfuran-2-yl)-(tetrahydrothiophen-2-yl)methyl]amino}cyclobut-3-ene-1,2-dione]	
